Tests used:
PTGER4 (EP4) = target: T1, PTGER4 (EP4) (Homo sapiens, UniProt P35408); test: hEP4 b-arrestin assay (PathHunter HEK 293 PTGER4 b-arrestin cells); type: cell-based; conditions: antagonistic activity, beta-arrestin assay; read-out: hEP4 b-arr IC50
T1 construct: host or cells: HEK 293 (PathHunter PTGER4 b-arrestin cell line)
How it was run: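 β-Arrestin recruitment to EP4 was read as enzyme-fragment-complementation chemiluminescence in stably transfected HEK 293 cells. After 15 min compound preincubation at 37 °C (ranges 10 μM–2 nM or 1 μM–0.2 nM), cells were stimulated 120 min with PGE2 at 20 nM, its EC80. IC50 values were fitted from duplicates, with repeat measurements averaged.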

EP2 receptor = target: T2, EP2 receptor (Homo sapiens, UniProt P43116); test: hEP2 cAMP assay (SF295 glioblastoma cells, HTRF cAMP, PGE2 stimulation); type: cell-based; conditions: antagonistic activity
T2 construct: SF295 glioblastoma cells express high endogenous EP2 and no EP4; host or cells: SF295 glioblastoma cells
How it was run: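 HTRF cAMP readout gave % cAMP relative to DMSO, fitted to IC50 with duplicate points. Compounds were preincubated 45 min at room temperature with EP2-expressing, EP4-negative SF295 cells in IBMX (2 mM)-containing buffer before a 30 min challenge with PGE2 at 75 nM final, its EC80.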

T1 sequence (P35408 whole entry): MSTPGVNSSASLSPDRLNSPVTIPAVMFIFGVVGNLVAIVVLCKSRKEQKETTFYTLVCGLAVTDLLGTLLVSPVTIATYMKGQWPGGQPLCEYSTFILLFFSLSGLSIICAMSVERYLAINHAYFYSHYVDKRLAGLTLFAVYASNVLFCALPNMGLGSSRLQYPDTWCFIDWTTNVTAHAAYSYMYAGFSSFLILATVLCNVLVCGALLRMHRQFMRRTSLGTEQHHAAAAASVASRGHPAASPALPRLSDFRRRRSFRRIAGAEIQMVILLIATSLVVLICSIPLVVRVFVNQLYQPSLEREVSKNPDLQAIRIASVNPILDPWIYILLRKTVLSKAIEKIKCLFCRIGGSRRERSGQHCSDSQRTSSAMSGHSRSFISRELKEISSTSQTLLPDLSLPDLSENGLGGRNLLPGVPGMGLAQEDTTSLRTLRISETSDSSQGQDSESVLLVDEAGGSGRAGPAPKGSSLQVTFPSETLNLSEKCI
T2 sequence (P43116 whole entry): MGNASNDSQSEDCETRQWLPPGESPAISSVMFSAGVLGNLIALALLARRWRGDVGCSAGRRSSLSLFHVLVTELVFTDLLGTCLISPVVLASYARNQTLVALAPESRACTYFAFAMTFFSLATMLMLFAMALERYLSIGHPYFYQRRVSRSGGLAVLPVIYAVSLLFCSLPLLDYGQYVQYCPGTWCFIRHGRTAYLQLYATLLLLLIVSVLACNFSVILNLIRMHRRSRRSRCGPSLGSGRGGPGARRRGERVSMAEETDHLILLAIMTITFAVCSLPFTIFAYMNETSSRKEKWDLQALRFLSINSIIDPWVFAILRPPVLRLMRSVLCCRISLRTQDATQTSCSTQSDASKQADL

CCOc1cc(-c2cc(NCCc3c(C)sc4c(C)cccc34)ncn2)ccc1C(C)C(=O)O (racemic) [Example 126, rac-2-(4-{6-[2-(2,7-Dimethyl-benzo[b]thiophen-3-yl)-ethylamino]-pyrimidin-4-yl}-2-ethoxy-phenyl)-propionic acid]
IC50 (PTGER4 (EP4)): 423 nM
IC50 (EP2 receptor): 233 nM

COc1ccc(Cl)c2c(CCNc3cc(-c4cc(C)c(C(=O)O)s4)ncn3)c(C)sc12 [Example 5, 5-{6-[2-(4-Chloro-7-methoxy-2-methyl-benzo[b]thiophen-3-yl)-ethylamino]-pyrimidin-4-yl}-3-methyl-thiophene-2-carboxylic acid]
IC50 (PTGER4 (EP4)): 247 nM
IC50 (EP2 receptor): 177 nM

Cc1cc(-c2cc(NCCc3c(C)oc4ccccc34)ncn2)sc1C(=O)O [Example 6, 3-Methyl-5-{6-[2-(2-methyl-benzofuran-3-yl)-ethylamino]-pyrimidin-4-yl}-thiophene-2-carboxylic acid]
IC50 (PTGER4 (EP4)): 673 nM
IC50 (EP2 receptor): 4 nM

CCc1oc2c(C)cc(F)cc2c1CCNc1cc(-c2cc(C)c(C(=O)O)s2)ncn1 [Example 7, 5-{6-[2-(2-Ethyl-5-fluoro-7-methyl-benzofuran-3-yl)-ethylamino]-pyrimidin-4-yl}-3-methyl-thiophene-2-carboxylic acid]
IC50 (PTGER4 (EP4)): 577 nM
IC50 (EP2 receptor): 198 nM

Cc1sc2c(C)cccc2c1CCNc1cc(-c2ccc(C(=O)O)cc2)ncn1 [Example 8, 4-{6-[2-(2,7-Dimethyl-benzo[b]thiophen-3-yl)-ethylamino]-pyrimidin-4-yl}-benzoic acid]
IC50 (PTGER4 (EP4)): 1170 nM
IC50 (EP2 receptor): 8 nM

COc1ccc(Cl)c2c(CCNc3cc(-c4ccc(C(=O)O)c(O)c4)ncn3)c(C)sc12 [Example 9, 4-{6-[2-(4-Chloro-7-methoxy-2-methyl-benzo[b]thiophen-3-yl)-ethylamino]-pyrimidin-4-yl}-2-hydroxy-benzoic acid]
IC50 (PTGER4 (EP4)): 1650 nM
IC50 (EP2 receptor): 44 nM

Cc1sc2c(C)cc(F)cc2c1CCNc1cc(-c2ccc(C(=O)O)c(O)c2)ncn1 [Example 10, 4-{6-[2-(5-Fluoro-2,7-dimethyl-benzo[b]thiophen-3-yl)-ethylamino]-pyrimidin-4-yl}-2-hydroxy-benzoic acid]
IC50 (PTGER4 (EP4)): 1040 nM
IC50 (EP2 receptor): 32 nM

CSc1cc(-c2cc(NCCc3c(C#N)sc4c(C)cc(F)cc34)ncn2)ccc1C(=O)O [Example 12, 4-{6-[2-(2-Cyano-5-fluoro-7-methyl-benzo[b]thiophen-3-yl)-ethylamino]-pyrimidin-4-yl}-2-methylsulfanyl-benzoic acid]
IC50 (PTGER4 (EP4)): 112 nM
IC50 (EP2 receptor): 4 nM

COc1cccc2c(CCNc3cc(-c4ccc(C(=O)O)c(SC)c4)ncn3)c(C#N)sc12 [Example 13, 4-{6-[2-(2-Cyano-7-methoxy-benzo[b]thiophen-3-yl)-ethylamino]-pyrimidin-4-yl}-2-methylsulfanyl-benzoic acid]
IC50 (PTGER4 (EP4)): 114 nM
IC50 (EP2 receptor): 32 nM

CCOc1cc(-c2cc(NCCc3c(C)sc4c(C)cc(F)cc34)ncn2)sc1/C=C/C(=O)O [Example 96, (E)-3-(3-Ethoxy-5-{6-[2-(5-fluoro-2,7-dimethyl-benzo[b]thiophen-3-yl)-ethylamino]-pyrimidin-4-yl}-thiophen-2-yl)-acrylic acid]
IC50 (PTGER4 (EP4)): 16 nM
IC50 (EP2 receptor): 121 nM

CCOc1cc(-c2cc(NCCc3c(C)sc4c(C)cc(F)cc34)ncn2)sc1CCC(=O)O [Example 97, 3-(3-Ethoxy-5-{6-[2-(5-fluoro-2,7-dimethyl-benzo[b]thiophen-3-yl)-ethylamino]-pyrimidin-4-yl}-thiophen-2-yl)-propionic acid]
IC50 (PTGER4 (EP4)): 84 nM
IC50 (EP2 receptor): 120 nM

COc1ccc(Cl)c2c(CCNc3cc(-c4ccc(C(=O)O)c(OC(C)C)c4)ncn3)c(C)sc12 [Example 98, 4-{6-[2-(4-Chloro-7-methoxy-2-methyl-benzo[b]thiophen-3-yl)-ethylamino]-pyrimidin-4-yl}-2-isopropoxy-benzoic acid]
IC50 (PTGER4 (EP4)): 340 nM
IC50 (EP2 receptor): 53 nM

CCCOc1cc(-c2cc(NCCc3c(C)sc4c(C)c(F)ccc34)ncn2)ccc1C(=O)O [Example 99, 4-{6-[2-(6-Fluoro-2,7-dimethyl-benzo[b]thiophen-3-yl)-ethylamino]-pyrimidin-4-yl}-2-propoxy-benzoic acid]
IC50 (PTGER4 (EP4)): 238 nM
IC50 (EP2 receptor): 30 nM

CCCOc1cc(-c2cc(NCCc3c(C)sc4c(C)cc(F)cc34)ncn2)ccc1C(=O)O [Example 100, 4-{6-[2-(5-Fluoro-2,7-dimethyl-benzo[b]thiophen-3-yl)-ethylamino]-pyrimidin-4-yl}-2-propoxy-benzoic acid]
IC50 (PTGER4 (EP4)): 299 nM
IC50 (EP2 receptor): 20 nM

CCCOc1cc(-c2cc(NCCc3c(C)sc4c(OC)ccc(Cl)c34)ncn2)ccc1C(=O)O [Example 101, 4-{6-[2-(4-Chloro-7-methoxy-2-methyl-benzo[b]thiophen-3-yl)-ethylamino]-pyrimidin-4-yl}-2-propoxy-benzoic acid]
IC50 (PTGER4 (EP4)): 505 nM
IC50 (EP2 receptor): 85 nM

CCCOc1cc(-c2cc(NCCc3c(C)sc4c(Cl)ccc(Cl)c34)ncn2)ccc1C(=O)O [Example 102, 4-{6-[2-(4,7-Dichloro-2-methyl-benzo[b]thiophen-3-yl)-ethylamino]-pyrimidin-4-yl}-2-propoxy-benzoic acid]
IC50 (PTGER4 (EP4)): 810 nM
IC50 (EP2 receptor): 54 nM

CCOc1cc(-c2cc(NCCc3c(C)sc4c(C)ccc(F)c34)ncn2)cc(C)c1C(=O)O [Example 103, 2-Ethoxy-4-{6-[2-(4-fluoro-2,7-dimethyl-benzo[b]thiophen-3-yl)-ethylamino]-pyrimidin-4-yl}-6-methyl-benzoic acid]
IC50 (PTGER4 (EP4)): 521 nM
IC50 (EP2 receptor): 111 nM

CCOc1cc(-c2cc(NCCc3c(C#N)sc4c(C)cc(F)cc34)ncn2)ccc1CC(=O)O [Example 104, (4-{6-[2-(2-Cyano-5-fluoro-7-methyl-benzo[b]thiophen-3-yl)-ethylamino]-pyrimidin-4-yl}-2-ethoxy-phenyl)-acetic acid]
IC50 (PTGER4 (EP4)): 161 nM
IC50 (EP2 receptor): 48 nM

CCOc1cc(-c2cc(NCCc3c(C)sc4c(OC)ccc(F)c34)ncn2)ccc1CC(=O)O [Example 105, (2-Ethoxy-4-{6-[2-(4-fluoro-7-methoxy-2-methyl-benzo[b]thiophen-3-yl)-ethylamino]-pyrimidin-4-yl}-phenyl)-acetic acid]
IC50 (PTGER4 (EP4)): 58 nM
IC50 (EP2 receptor): 157 nM

CCOc1cc(-c2cc(NCCc3c(C)sc4c(C)ccc(F)c34)ncn2)ccc1CC(=O)O [Example 107, (2-Ethoxy-4-{6-[2-(4-fluoro-2,7-dimethyl-benzo[b]thiophen-3-yl)-ethylamino]-pyrimidin-4-yl}-phenyl)-acetic acid]
IC50 (PTGER4 (EP4)): 167 nM
IC50 (EP2 receptor): 249 nM

CCOc1cc(-c2cc(NCCc3c(C)sc4c(C)cccc34)ncn2)ccc1CC(=O)O [Example 109, (4-{6-[2-(2,7-Dimethyl-benzo[b]thiophen-3-yl)-ethylamino]-pyrimidin-4-yl}-2-ethoxy-phenyl)-acetic acid]
IC50 (PTGER4 (EP4)): 405 nM
IC50 (EP2 receptor): 95 nM

CCOc1cc(-c2cc(NCCc3c(C)sc4c(C)cc(F)cc34)ncn2)ccc1CC(=O)O [Example 110, (2-Ethoxy-4-{6-[2-(5-fluoro-2,7-dimethyl-benzo[b]thiophen-3-yl)-ethylamino]-pyrimidin-4-yl}-phenyl)-acetic acid]
IC50 (PTGER4 (EP4)): 403 nM
IC50 (EP2 receptor): 160 nM

CCOc1cc(-c2cc(NCCc3c(C)sc4c(C)c(F)ccc34)ncn2)ccc1CC(=O)O [Example 112, (2-Ethoxy-4-{6-[2-(6-fluoro-2,7-dimethyl-benzo[b]thiophen-3-yl)-ethylamino]-pyrimidin-4-yl}-phenyl)-acetic acid]
IC50 (PTGER4 (EP4)): 665 nM
IC50 (EP2 receptor): 188 nM

Cc1sc2c(C)cc(F)cc2c1CCNc1cc(-c2ccc(C(=O)O)c(OC(F)F)c2)ncn1 [Example 115, 2-Difluoromethoxy-4-{6-[2-(5-fluoro-2,7-dimethyl-benzo[b]thiophen-3-yl)-ethylamino]-pyrimidin-4-yl}-benzoic acid]
IC50 (PTGER4 (EP4)): 208 nM
IC50 (EP2 receptor): 8 nM

COc1ccc(Cl)c2c(CCNc3cc(-c4ccc(C(=O)O)c(OC(F)F)c4)ncn3)c(C)sc12 [Example 116, 4-{6-[2-(4-Chloro-7-methoxy-2-methyl-benzo[b]thiophen-3-yl)-ethylamino]-pyrimidin-4-yl}-2-difluoromethoxy-benzoic acid]
IC50 (PTGER4 (EP4)): 297 nM
IC50 (EP2 receptor): 35 nM

CCOc1cc(-c2cc(NCCc3c(C)sc4c(OC)ccc(F)c34)ncn2)ccc1OCC(=O)O [Example 117, (2-Ethoxy-4-{6-[2-(4-fluoro-7-methoxy-2-methyl-benzo[b]thiophen-3-yl)-ethylamino]-pyrimidin-4-yl}-phenoxy)-acetic acid]
IC50 (PTGER4 (EP4)): 23 nM
IC50 (EP2 receptor): 101 nM

CCOc1cc(-c2cc(NCCc3c(C)sc4c(C)ccc(F)c34)ncn2)ccc1OCC(=O)O [Example 118, (2-Ethoxy-4-{6-[2-(4-fluoro-2,7-dimethyl-benzo[b]thiophen-3-yl)-ethylamino]-pyrimidin-4-yl}-phenoxy)-acetic acid]
IC50 (PTGER4 (EP4)): 29 nM
IC50 (EP2 receptor): 112 nM

CCOc1cc(-c2cc(NCCc3c(C)sc4c(C)c(F)ccc34)ncn2)ccc1OCC(=O)O [Example 119, (2-Ethoxy-4-{6-[2-(6-fluoro-2,7-dimethyl-benzo[b]thiophen-3-yl)-ethylamino]-pyrimidin-4-yl}-phenoxy)-acetic acid]
IC50 (PTGER4 (EP4)): 143 nM
IC50 (EP2 receptor): 119 nM

CCOc1cc(-c2cc(NCCc3c(C)oc4c(Cl)cccc34)ncn2)ccc1OCC(=O)O [Example 120, (4-{6-[2-(7-Chloro-2-methyl-benzofuran-3-yl)-ethylamino]-pyrimidin-4-yl}-2-ethoxy-phenoxy)-acetic acid]
IC50 (PTGER4 (EP4)): 290 nM
IC50 (EP2 receptor): 59 nM

From patent US11325899B2, “Benzofurane and benzothiophene derivatives as PGE2 receptor modulators” (IDORSIA PHARMACEUTICALS LTD, priority 2017, dated 2022)
